From paper PMC8470881, “Membrane Interactions of Latarcins: Antimicrobial Peptides from Spider Venom” (International Journal of Molecular Sciences, 2021)
No end group written: not given here.

Assays:
[1] = tested on: Bacillus subtilis subsp. spizizenii (DSM 347), Staphylococcus xylosus (DSM 20267), Escherichia coli (DSM 1116), Acinetobacter sp. (DSM 586); settings: for MIC: irrespective of the bacterial strain (all four strains), Müller-Hinton medium, 20 h at 37 °C, maximum tested 256 µg/mL
Method: The effect of latarcins against four types of bacteria was determined using a minimum inhibitory concentration (MIC) assay on two Gram-positive strains (Bacillus subtilis subsp. spizizenii and Staphylococcus xylosus) and two Gram-negative strains (Escherichia coli and Acinetobacter sp.). Although the antimicrobial activity of latarcins is well documented, these experiments served to ensure that all studies were performed on molecules that show the expected antimicrobial activity.
The minimum inhibitory concentration (MIC) was determined as previously reported. For each latarcin, MIC was determined against two Gram-positive strains, namely Bacillus subtilis subsp. spizizenii (DSM 347) and Staphylococcus xylosus (DSM 20267), and two Gram-negative strains: Escherichia coli (DSM 1116) and Acinetobacter sp. (DSM 586). Bacterial cultures were grown in Müller-Hinton medium (MHM) as described previously, and peptides were dissolved in sterile water containing 10% DMSO. The stock solution of peptides with 1024 µg/mL was prepared such that serial dilutions of peptides (from 256 µg/mL to 2 µg/mL) in MHM were prepared in 96-well plates with the penultimate column without peptide to act as positive control (no peptide) and the final column as negative control (no bacteria). Bacterial stock suspension was made with an OD of 0.2 units at 550 nm. This stock solution was further diluted (1:1000 for Gram-negative bacteria and 1:100 for Gram-positive bacteria), and subsequently, 50 µL of the resulting bacterial suspension was added to the wells except the final well to give a final concentration of 10^6 colony-forming units per mL. Afterwards, the 96-well plates were incubated at 37 °C for 20 h, and cellular respiration was detected by adding 20 µL of resazurin solution (200 µg/mL) for an additional 2 h at the same temperature.

human red blood cells = assay: Hemolysis assay; settings: peptide concentration 128 µg/mL, 30 min, 37 °C
Method: A hemolysis assay was performed to determine the activity of latarcins against human red blood cells, allowing us to compare the results to those of previous experiments in which rabbit erythrocytes were used. The activity was determined for each latarcin as a function of increasing concentration, up to a maximum of 256 µg of peptides per mL. […] The percentage hemolysis of the other peptides was determined at the highest tested concentration of 256 µg/mL.
The influence of latarcins on human erythrocytes was determined by using a hemolysis assay modified from previously published methods. Blood was obtained from the blood bank of the local hospital in Karlsruhe and stabilized with citrate phosphate dextrose buffer. Erythrocyte suspension (5 mL) was taken up in Tris buffer (45 mL, 172 mM, pH 7.6) at room temperature, gently mixed, and centrifuged (1500 rpm, 10 min). The supernatant solution was removed, and Tris wash was repeated twice with 45 mL as above. The washed erythrocytes (1 mL) were suspended in 9 mL Tris buffer to make the stock cell suspension, which was then further diluted to 0.25% (v/v) at 37 °C before use. Peptide stock solutions were prepared with 1024 µg/mL in Tris buffer containing 10% DMSO, and serial dilutions were prepared in the range of 512 µg/mL to 2 µg/mL as described previously. For the positive control, Triton X-100 (200 µL of 0.2% v/v) was used, and as the negative control, Tris buffer (200 µL, 172 mM) was used. Erythrocyte stock cell suspension (200 µL) was added to each of the samples and incubated for 30 min at 37 °C with gentle shaking before determining the percentage of hemolysis as described previously.

[2] = Solid-state 15N-NMR (helix alignment in membrane); format: physicochemical; settings: DMPC/DMPG (7/3), P/L = 1:100, oriented samples, solid-state 15N-NMR, 308 K
Method: While OCD provides a rough picture of the peptide alignment, the helix tilt angle can be measured rather precisely by solid-state NMR using the same type of oriented membrane sample. […] If the peptides are not helical, then the orientation cannot be determined from these ^15N-NMR spectra (which is why CD/OCD need to be performed first), but other information may be available. Oriented NMR samples were prepared at a P/L of 1/100 in DMPC/DMPG (7/3), as for CD/OCD. The ^15N-NMR spectra of all latarcins are summarized in Figure 7, along with the corresponding ^31P-NMR spectra of the phospholipid component. […] This conclusion is supported by the vesicle leakage data above.
Ltc2a, with a chemical shift of 131 ppm, on the other hand, is distinctly tilted in the membrane, as was also observed in the OCD experiments. […] Ltc3a, with a chemical shift of 93 ppm, is tilted only slightly by 10–20°. […] Given that OCD had shown distinct signs of aggregation into β-sheets, we can conclude that Ltc6a binds to the membrane and perturbs the lipid bilayer, but it is not possible to determine the molecular alignment of Ltc6a when it has most likely formed aggregates.
Macroscopically oriented NMR samples were prepared by co-dissolving appropriate amounts of peptides and lipids (in 300 μL methanol, 100 μL CHCl3, and 10–20 μL Milli-Q water) and spreading them onto 23 thin glass plates of dimensions 9 mm × 7.5 mm × 0.08 mm (Marienfeld Laboratory Glassware, Lauda-Königshofen, Germany). The peptide-to-lipid ratio (P/L) is given in mol/mol. The plates were dried in air for 1 h, followed by drying under vacuum overnight. The plates were stacked and placed into a hydration chamber with 96% relative humidity at 48 °C for 18–24 h before wrapping the stack in parafilm and plastic foil for the NMR measurements. All solid-state NMR measurements were carried out on a Bruker Avance 500 MHz spectrometer (Bruker Biospin, Karlsruhe, Germany) at 308 K, as previously reported. The oriented membrane samples were placed in the flat-coil probe such that the lipid bilayer normal was aligned parallel to the magnetic field. ^31P-NMR was used to check the quality of the lipid orientation in the samples, using a Hahn echo sequence with phase cycling. The 90° pulse length was 3.9 µs, the echo time was 30 µs, and 17 kHz ^1H SPINAL64 decoupling was used. ^1H-^15N cross-polarization experiments using a CP-MOIST pulse sequence were performed using a double-tuned probe with a low-E flat-coil resonator (3 mm × 9 mm cross-section), employing a ^1H and ^15N radiofrequency field strength of 65 kHz during the cross-polarization and 25 kHz ^1H SPINAL16 [41] decoupling during acquisition. A mixing time of 500 μs was used, and 10,000 to 30,000 scans were accumulated. The acquisition time was 10 ms, and the recycle time was 3 s. The ^15N chemical shift was referenced using the ^1H-NMR signal of water in the sample.

[3] = Oriented circular dichroism (helix alignment in membrane); format: physicochemical; settings: DMPC/DMPG (7/3), P/L = 1:100, oriented hydrated bilayers, 30 °C
From the text: This is the same lipid composition and peptide-to-lipid ratio as was used in conventional CD above (see Figure 2), but in contrast to the vesicular samples containing excess water, the oriented membranes for OCD are just about saturated with water.
The sign and intensity of the 208 nm band provide a characteristic signature of the helix tilt angle in the membrane [19]. For a helical peptide that lies flat on the bilayer surface, this band is the most intense.
To prepare oriented CD (OCD) samples, latarcins depending on their solubility were dissolved either in pure MeOH or CHCl3/MeOH 1/1 (v/v) and thoroughly mixed with appropriate aliquots of DMPC/DMPG solutions (7/3 molar ratio) in the same solvent. Each co-dissolved mixture with a peptide-to-lipid molar ratio of 1/100 was deposited on a quartz glass plate using a gas-tight syringe. To achieve a spot size of 12.5 mm on the 20 mm diameter plates (Suprasil QS, Hellma Optik GmbH, Jena, Germany), a volume of ~55–60 µL was used. The organic solvents were evaporated in a gentle stream of air until the sample appeared dry. The amounts of deposited lipid and peptide on the plate were always 0.29 μmole and 2.9 nmole, respectively. The peptide-lipid-film was further dried under reduced pressure for at least 3 h. Afterwards, each plate with the dried sample was fixed and sealed by a polymer O-ring in a cylindrical sample holder. The plate with the sample and a second window plate without the sample formed a compartment for controlled hydration. The holder was assembled in a custom-built hydration cell. In the inner compartment of the sample holder, the peptide-lipid film was hydrated for about 15 h at 30 °C and 97% relative humidity via the gas phase by a saturated K2SO4 solution contained in an adjacent cavity of the hydration cell. During hydration, the lipids spontaneously align as lipid bilayers that are macroscopically oriented perpendicular to the glass surface. For the measurement, the holder was transferred to an OCD sample cell that had been developed and built in-house [20]. It is computer-controlled and can be integrated into a Jasco spectropolarimeter as an accessory. The optical path runs along the cylindrical axis of the cell, i.e., normal to the quartz glass plate surface carrying the oriented lipid film. To reduce possible spectral artifacts caused by linear dichroism (LD) or linear birefringence (LB) due to imperfections in the sample, strain in the quartz glass or imperfect alignment of the windows, the OCD spectra were recorded in steps of 45° by rotation of the cell around the beam axis [19, 20]. At each angle, two scans were recorded from 260–185 nm as an average, using a scan rate of 20 nm min^−1, 4 s response time, and 1 nm bandwidth.

[4] = Circular dichroism spectroscopy (secondary structure); format: physicochemical; settings: CD in DMPC/DMPG (7/3) SUVs, P/L = 1:50, 10 mM phosphate buffer pH 7.0, 30 °C, peptide 29.3 μM; deconvolution with CDSSTR, CONTIN-LL, SELCON-3
From the text: Next, we compared the secondary structure of the full set of latarcins in the presence of lipid membranes, for which there are no complete data available yet.
The CD line shapes (Figure 2) were deconvoluted to estimate the secondary structure contributions (Supplementary Table S1) using the CDSSTR, CONTIN-LL, and SELCON-3 algorithms provided on the DICHROWEB online server as described previously. […] In peptides containing a high proportion of aromatic residues, such shifts of the long-wavelength band are well documented.
Small unilamellar vesicles (SUVs) for the CD measurements were prepared as follows. Weighed amounts of the lipid powders (DMPC, DMPG) were dissolved in chloroform/methanol 1/1 (v/v) to obtain 5 mg/mL stock solutions. For obtaining mixed DMPC/DMPG liposomes (7/3 molar ratio), the appropriate aliquots of these stock solutions were pipetted in a glass vial and thoroughly vortexed. The organic solvents were removed under a gentle stream of nitrogen gas, followed by 3 h of vacuum pumping in an exsiccator at a reduced pressure of 3-4 mbars to remove solvent residuals from the lipid film that had formed in the vial. The lipid film was dispersed by the addition of 10 mM phosphate buffer (PB) pH 7.0 and homogenized by vigorously vortexing for 10 × 1 min and 10 freeze–thaw cycles. SUVs were formed by sonication of the obtained multilamellar vesicles for 16 min in a strong ultrasonic bath (UTR 200, Hielscher, Germany). The temperature of the water in the ultrasonic bath was adjusted to 35 °C by circulating it through a thermostat to avoid overheating the samples. A weighed amount of the corresponding peptide was dissolved in water resulting in stock solutions with a peptide concentration of 0.5 mg/mL. For the final CD samples, each peptide stock solution was diluted to 29.3 μM and the corresponding lipid dispersion to 1.47 mM in 10 mM PB, resulting in a peptide-to-lipid (P/L) ratio of 1/50.
[…] The samples were measured in a 1-millimeter path length quartz glass cell (Suprasil, Hellma Müllheim, Germany) between 260 and 185 nm at 0.5 nm intervals. Spectra of the liposome samples were recorded at 30 °C, i.e., well above the phase transition temperature of the lipids, using a water-thermostated rectangular cell holder. Three repeat scans at a scan rate of 10 nm min^−1, 8 s response time, and 1 nm bandwidth were averaged for each sample, and the baseline spectrum of the respective peptide-free sample was subtracted from the sample spectrum. CD spectra were smoothened by a Savitzky-Golay filter (convolution width of 15 data points), which is implemented in the Jasco Spectra Analysis software.

Substance | MIC [1] | % Hemolysis (human red blood cells) | NMR: orientational state of the helix [2] | MIC (relative antimicrobial activity) ([1]; relative activity over two Gram-positive and two Gram-negative strains) | OCD: orientational state of the helix [3] | % Helix (CD) [4]
GLFGKLIKKFGRKAISYAVKKARGKH [Ltc2a] | below 4 µg/mL | 100% | – | – | – | –
H-SMWSGMWRRKLKKLRNALKKKLKGE-OH [Ltc1] | below 4 µg/mL | – | Surface | +++ | Surface | 66%
